Drawing on patent publication US9856279B2 (AGIOS PHARMACEUTICALS, INC, priority 2011, dated 2018), this text covers IC50 for 18 compounds.

Assay [1] relates to HT1080 cells. Put plainly: Cellular assay for IDH1m inhibitors: inhibition of 2-HG production (LC-MS, 48 hours) in HT1080 cells. Particulars: Homo sapiens, HT-1080; inhibition of 2-HG production, HT1080 cells; read-out: HT1080 IC50. The format is cell-based. In short, it runs like this:
(§1)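 Read-out: 2-HG in culture medium by LC-MS after 48 h compound exposure; IC50 = 50% reduction vs DMSO control. Cells plated 5000/well in DMEM/10% FBS, 37 °C, 5% CO2; DMSO 0.2% final.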

The test system of assay [2] is U87MG cells. Put plainly: Cellular assay for IDH1m inhibitors: inhibition of 2-HG production (LC-MS, 48 hours) in U87MG cells. The format is cell-based. Particulars: Homo sapiens, U-87 MG, inhibition of 2-HG production, U87R132H cells; read-out: U87R132H IC50. Summed up:
as §1

The target in assay [3] is IDH1 R132H (Homo sapiens, UniProt O75874, R132H). Put plainly: Assay for IDH1 R132H inhibitors (NADPH/aKG, resazurin detection). The format is biochemical. Particulars: enzyme assay of Example 12; read-out: IDH1R132H IC50. Summed up:
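Read-out is resorufin fluorescence (Ex544/Em590) 5 min after adding a 30 μM resazurin detection mix. Before that, mutant enzyme (0.2 μg/ml in its mix) ran 50 min at room temperature with compound, 8 uM NADPH and 2 mM aKG (mix levels) in Tris pH 7.5 with NaCl, MgCl2, BSA.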
On the technique in general: The colour change of resazurin is a common sign of viable cells or microbes.

Some results are limits rather than exact numbers.

Sequence of IDH1 R132H (O75874 whole entry R132H): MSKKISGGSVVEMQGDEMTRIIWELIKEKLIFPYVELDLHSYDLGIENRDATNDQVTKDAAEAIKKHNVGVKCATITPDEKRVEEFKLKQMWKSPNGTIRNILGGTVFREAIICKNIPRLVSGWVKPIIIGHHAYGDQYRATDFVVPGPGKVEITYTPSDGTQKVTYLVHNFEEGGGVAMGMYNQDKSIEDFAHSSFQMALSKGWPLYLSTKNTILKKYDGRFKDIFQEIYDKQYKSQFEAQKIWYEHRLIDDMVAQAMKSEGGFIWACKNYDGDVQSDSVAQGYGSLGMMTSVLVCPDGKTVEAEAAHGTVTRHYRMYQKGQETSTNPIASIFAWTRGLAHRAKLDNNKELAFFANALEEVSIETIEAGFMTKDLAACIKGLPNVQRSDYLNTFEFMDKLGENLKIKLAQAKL

Usually IC50 stands for the point on the concentration scale where inhibition reaches its midpoint. `COCCC(=O)N1CCN(c2nc(C3CC3)c(-c3cccc(N4CC=CC4=O)c3)cc2C#N)C[C@H]1C` [Compound 459, (R)-6-cyclopropyl-2-(4-(3-methoxypropanoyl)-3-methylpiperazin-1-yl)-5-(3-(2-oxo-2,5-dihydro-1H-pyrrol-1-yl)phenyl)nicotinonitrile]: the IC50 in assay [1], in assay [2] and in assay [3] was below 500 nM each time.
With `COCCC(=O)N1CCN(c2nc(C3CC3)c(-c3cccc(NC(=O)[C@@H](C)Cl)c3)cc2C#N)C[C@H]1C` [Compound 462, (R)-2-chloro-N-(3-(5-cyano-2-cyclopropyl-6-((R)-4-(3-methoxypropanoyl)-3-methylpiperazin-1-yl)pyridin-3-yl)phenyl)propanamide], the figures for the concentration for half-maximal inhibition (IC50) in assay [1], in assay [2] and in assay [3] were 1000 to 10000 nM, 1000 to 10000 nM and 500 to 1000 nM, respectively.
As for `C=CS(=O)(=O)N(c1cccc(-c2c(C3CC3)nc(N3CCN(C(=O)C4CC4)[C@H](C4CC4)C3)c(C#N)c2C)c1)S(=O)(=O)C=C` [Compound 463, (R)—N-(3-(5-cyano-6-(4-(cyclopropanecarbonyl)-3-cyclopropylpiperazin-1-yl)-2-cyclopropyl-4-methylpyridin-3-yl)phenyl)-N-(vinylsulfonyl)ethenesulfonamide], the concentration for half-maximal inhibition (IC50) in assay [1] is 1000 to 10000 nM; in assay [2], 1000 to 10000 nM; in assay [3], below 500 nM.
For `N#Cc1cc(-c2ccc3ncoc3c2)c(C2CC2)nc1N1CCN(C(=O)C2CC2)[C@H](C2CC2)C1` [Compound 466, (R)-5-(benzo[d]oxazol-6-yl)-2-(4-(cyclopropanecarbonyl)-3-cyclopropylpiperazin-1-yl)-6-cyclopropylnicotinonitrile], the IC50 in assay [1] is 1000 to 10000 nM; in assay [2] it was 500 to 1000 nM; in assay [3], below 500 nM.
The corresponding values for `C=CS(=O)(=O)Nc1cccc(-c2c(C3CC3)nc(N3CCN(C(=O)C4CC4)[C@H](C4CC4)C3)c(C#N)c2C)c1` [Compound 470, (R)—N-(3-(5-cyano-6-(4-(cyclopropanecarbonyl)-3-cyclopropylpiperazin-1-yl)-2-cyclopropyl-4-methylpyridin-3-yl)phenyl)ethenesulfonamide] are 1000 to 10000 nM, 1000 to 10000 nM and below 500 nM.
The corresponding values for `COCCC(=O)N1CCN(c2nc(C3CC3)c(-c3ccc4oc(=O)[nH]c4c3)cc2C#N)C[C@H]1C` [Compound 473, (R)-6-cyclopropyl-2-[4-(3-methoxy-propionyl)-3-methyl-piperazin-1-yl]-5-(2-oxo-2,3-dihydro-benzooxazol-5-yl)-nicotinonitrile] are 1000 to 10000 nM, 500 to 1000 nM and below 500 nM.
On to `C=Cc1ccc2c(-c3cc(C#N)c(N4CCN(C(=O)C5CC5)[C@H](C5CC5)C4)nc3C3CC3)cccc2n1` [Compound 475, (R)-2-(4-(cyclopropanecarbonyl)-3-cyclopropylpiperazin-1-yl)-6-cyclopropyl-5-(2-vinylquinolin-5-yl)nicotinonitrile], for which the half-inhibitory concentration (IC50) in assay [1] is 500 to 1000 nM; in assay [2], below 500 nM; in assay [3], below 500 nM.
In the case of `N#Cc1cc(-c2cccc3nc(O)ccc23)c(C2CC2)nc1N1CCN(C(=O)C2CC2)[C@H](C2CC2)C1` [Compound 476, (R)-2-(4-(cyclopropanecarbonyl)-3-cyclopropylpiperazin-1-yl)-6-cyclopropyl-5-(2-hydroxyquinolin-5-yl)nicotinonitrile], the IC50 is 500 to 1000 nM in assay [1], below 500 nM in assay [2] and below 500 nM in assay [3].
As to `COC[C@@H]1C[C@@H]1C(=O)N1CCN(c2nc(C3CC3)c(-c3cccc4cnccc34)cc2C#N)C[C@H]1C1CC1` [Compound 480, 6-cyclopropyl-2-((R)-3-cyclopropyl-4-((1S,2R)-2-(methoxymethyl)cyclopropanecarbonyl)piperazin-1-yl)-5-(isoquinolin-5-yl)nicotinonitrile], the 50% inhibitory concentration (IC50) in assay [1], in assay [2] and in assay [3] was below 500 nM in each case.
Turning to `CCOC1CC1C(=O)N1CCN(c2nc(C3CC3)c(-c3cccc4cnccc34)cc2C#N)C[C@H]1C1CC1` (stereo partly drawn) [Compound 481], the IC50 in assay [1], in assay [2] and in assay [3] was below 500 nM in each case.
On to `N#Cc1cc(-c2cccc3ncoc23)c(C2CC2)nc1N1CCN(C(=O)C2CC2)[C@H](C2CC2)C1` [Compound 483, (R)-5-(benzo[d]oxazol-7-yl)-2-(4-(cyclopropanecarbonyl)-3-cyclopropylpiperazin-1-yl)-6-cyclopropylnicotinonitrile], for which the IC50 was 1000 to 10000 nM in assay [1], 500 to 1000 nM in assay [2] and below 500 nM in assay [3].
The corresponding values for `C=Cc1cc(-c2cc(C#N)c(N3CCN(C(=O)C4CC4)[C@H](C4CC4)C3)nc2C2CC2)ccn1` [Compound 485, (R)-6-(4-(cyclopropanecarbonyl)-3-cyclopropylpiperazin-1-yl)-2-cyclopropyl-2′-vinyl-3,4′-bipyridine-5-carbonitrile] are below 500 nM, below 500 nM and below 500 nM.
Consider `N#Cc1cc(-c2cccc3cnccc23)c(C2CC2)nc1N1CCN(C(=O)c2ccoc2)[C@H](C2CC2)C1` [Compound 488, (R)-6-cyclopropyl-2-(3-cyclopropyl-4-(furan-3-carbonyl)piperazin-1-yl)-5-(isoquinolin-5-yl)nicotinonitrile], for which the IC50 in assay [1] was below 500 nM; in assay [2], 500 to 1000 nM; in assay [3], below 500 nM.
With `C=Cc1nccc(-c2cc(C#N)c(N3CCN(C(=O)C4CC4)[C@H](C4CC4)C3)nc2C2CC2)n1` [Compound 496, (R)-2-(4-(cyclopropanecarbonyl)-3-cyclopropylpiperazin-1-yl)-6-cyclopropyl-5-(2-vinylpyrimidin-4-yl)nicotinonitrile], the IC50 in assay [1] is 500 to 1000 nM; in assay [2], below 500 nM; in assay [3], 500 to 1000 nM.
Regarding `C=Cc1cc(-c2cc(C#N)c(N3CCN(C(=O)CC(F)(F)F)[C@H](C4CC4)C3)nc2C2CC2)ccn1` [Compound 498, (R)-2-cyclopropyl-6-(3-cyclopropyl-4-(3,3,3-trifluoropropanoyl)piperazin-1-yl)-2′-vinyl-3,4′-bipyridine-5-carbonitrile], the 50% inhibitory concentration (IC50) in assay [1], in assay [2] and in assay [3] was below 500 nM in each case.
Turning to `C=Cc1cccc(-c2cc(C#N)c(N3CCN(C(=O)C4CC4)[C@H](C4CC4)C3)nc2C2CC2)n1` [Compound 499, (R)-6′-(4-(cyclopropanecarbonyl)-3-cyclopropylpiperazin-1-yl)-2′-cyclopropyl-6-vinyl-2,3′-bipyridine-5′-carbonitrile], the concentration for half-maximal inhibition (IC50) was 1000 to 10000 nM in assay [1], 1000 to 10000 nM in assay [2] and 500 to 1000 nM in assay [3].
For `C=Cc1cc(-c2cc(C#N)c(N3CCN(C(=O)CCO)[C@H](C)C3)nc2C2CC2)ccn1` [Compound 500], the concentration for half-maximal inhibition (IC50) in assay [1], in assay [2] and in assay [3] was below 500 nM throughout.
For the compound `N#Cc1cc(-c2ccnc(Br)c2)c(C2CC2)nc1N1CCN(C(=O)C2CC2)[C@H](C2CC2)C1` [Compound 508, (R)-2′-bromo-6-(4-(cyclopropanecarbonyl)-3-cyclopropylpiperazin-1-yl)-2-cyclopropyl-3,4′-bipyridine-5-carbonitrile], the IC50 in assay [1], in assay [2] and in assay [3] was below 500 nM in each case.
